6 molecules from PubChem BioAssay (NCI) can be followed below.

Test systems include A549 NSCLC; OVCAR-8 ovarian; K-562 leukemia; SF-268 CNS; SK-MEL-5 melanoma; HCT-116 colon; SF-539 CNS; MDA-N; TK-10 renal; BT-549 breast; SNB-19 CNS.
Assay in all cases: NCI-60 cell line screen, 48 h

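These data come from cells grown in 96-well plates and exposed to compound for 48 hours at five concentrations. GI50 = concentration required for 50% inhibition of growth. TGI marks complete inhibition of growth.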

In the case of `CCOc1ncn(-c2ccc(NC(=S)Nc3cccc(O)c3)cc2)n1`, the TGI in the assay on A549 NSCLC, in the assay with OVCAR-8 ovarian, with K-562 leukemia, in the assay on SF-268 CNS, in the assay on SK-MEL-5 melanoma and in the assay with HCT-116 colon was > 100 µM throughout. For the same molecule, the TGI in the assay with SF-539 CNS, in the assay with MDA-N, in the assay on TK-10 renal, in the assay on BT-549 breast and in the assay with SNB-19 CNS was > 100 µM throughout.
Turning to `COc1ccc(C(=O)C2CC3(CCC2(O)c2ccc(OC)cc2)CC(=O)Nc2ccccc2C3=O)cc1` (centres undefined), the TGI in the assay on A549 NSCLC, in the assay on OVCAR-8 ovarian, with K-562 leukemia, with SF-268 CNS, in the assay with SK-MEL-5 melanoma and with HCT-116 colon was > 100 µM throughout. For the same molecule, the TGI with SF-539 CNS, with MDA-N, in the assay with TK-10 renal and in the assay on BT-549 breast was > 100 µM in each case.
As for `CO/C(=N\N=C(/C)C(F)(F)F)c1ccncc1`, the TGI with OVCAR-8 ovarian, in the assay on K-562 leukemia, in the assay with SK-MEL-5 melanoma, in the assay with HCT-116 colon, in the assay with MDA-N and in the assay with BT-549 breast was > 100 µM each time. Moreover, the TGI in the assay on SNB-19 CNS is > 100 µM.
Turning to `COC[C@H]1C(=O)NCC(=O)N2NCCC[C@H]2C(=O)N(O)[C@H](C)C(=O)O[C@@H](C(C)C)[C@H](NC(=O)[C@](C)(O)[C@]2(O)CC[C@@H](CC(C)C)[C@H](C)O2)C(=O)N2NCCC[C@@H]2C(=O)N1O`, the GI50 in the assay with A549 NSCLC was < 0.0128 µM; with OVCAR-8 ovarian, < 0.01 µM; in the assay with SF-539 CNS, 0.0146 µM; in the assay on TK-10 renal, 0.0181 µM. Also, the TGI in the assay on A549 NSCLC was 0.028 µM; in the assay with OVCAR-8 ovarian, 0.0306 µM; with SF-539 CNS, 0.0285 µM; in the assay with TK-10 renal, 0.0322 µM.
For the molecule `ClCCN(CCCl)Cc1ccc(Nc2ccnc3cc(Cl)ccc23)cc1`, the GI50 was 1.11 µM in the assay with A549 NSCLC; 1.18 µM in the assay on SF-268 CNS; 1.56 µM in the assay with HCT-116 colon; 2.42 µM in the assay on TK-10 renal; 2.12 µM with BT-549 breast; 1.89 µM with SNB-19 CNS. The TGI with A549 NSCLC is 5.08 µM; in the assay with SF-268 CNS it was 5.68 µM; in the assay on HCT-116 colon, > 100 µM; in the assay with TK-10 renal, 6.22 µM; in the assay with BT-549 breast it was 6.04 µM; with SNB-19 CNS it was 6.73 µM.
Regarding `COc1ccc2c(O)c3[n+](cc2c1OC)CCc1cc2c(cc1-3)OCO2`, the TGI with A549 NSCLC, in the assay on OVCAR-8 ovarian, in the assay with K-562 leukemia, in the assay on SF-268 CNS, in the assay with SK-MEL-5 melanoma and in the assay on HCT-116 colon was > 100 µM in each case. Moreover, the TGI with SF-539 CNS, in the assay with MDA-N, in the assay with TK-10 renal, with BT-549 breast and in the assay with SNB-19 CNS was > 100 µM each time.
